This passage reports inhibition results from patent publication US8153795B2, “Substituted 1-oxa-3,8-diazaspiro[4.5]-decan-2-one-compounds and the use thereof for producing drugs” (Gruenenthal GmbH, priority 2005, dated 2012).

For one test, the target named is T1, human μ opioid receptor (Homo sapiens, UniProt P35372).
T1 construct: purchased NEN, Zaventem, Belgium RB-HOM; host or cells: CHO-K1 cells (recombinant expression, membrane preparation)
Description: affinity for the human μ opioid receptor, displacement of [3H]-naloxone, CHO-K1 membrane preparation. The conditions noted are these: percentage inhibition of specific binding of [3H]-naloxone. On the procedure: Receptor affinity for the human p opioid receptor is determined in a homogeneous batch in microtitre plates. To this end, dilution series of the particular substituted 1-oxa-3,8-diazaspiro[4.5]-decan-2-one compounds to be tested were incubated at room temperature for 90 minutes in a total volume of 250 μl with a receptor membrane preparation (15-40 μg of protein per 250 μl of incubation batch) of CHO-K1 cells, which express the human p opioid receptor (RB-HOM receptor membrane preparation from NEN, Zaventem, Belgium) in the presence of 1 nmol/l of the radioactive ligand [^3H]-naloxone (NET719, from NEN, Zaventem, Belgium) and of 1 mg of WGA-SPA beads (wheat germ agglutinin SPA beads from Amersham/Pharmacia, Freiburg, Germany). The incubation buffer used is 50 mmol/l tris-HCl supplemented with 0.05 wt. % of sodium azide and 0.06 wt. % of bovine serum albumin. Nonspecific binding is determined by additionally adding 25 μmol/l of naloxone. Once the ninety minute incubation time had elapsed, the microtitre plates were centrifuged off for 20 minutes at 1000 g and the radioactivity measured in a β counter (Microbeta-Trilux, from PerkinElmer Wallac, Freiburg, Germany). The percentage displacement of the radioactive ligand from its binding to the human p opioid receptor is determined at a concentration of the substances to be tested of 1 μmol/l and stated as percentage inhibition of specific binding.
(In general: Loss of bound radioactivity is the signal in a displacement assay; it reports binding, not function.)

In a further test the target is T2, NA transporter (Rattus norvegicus, UniProt Q63380).
T2 construct: from tissue; host or cells: rat brain synaptosomes (P2 fraction) from hypothalamus
Description: noradrenalin uptake inhibition in rat brain synaptosomes (hypothalamus), [3H]-NA. The test is classed as biochemical. The source says: a) Method for Determining Noradrenalin and 5-HT Uptake Inhibition:
Synaptosomes from rat brain regions are freshly isolated for in vitro studies, as described in the publication “The isolation of nerve endings from brain” by E. G. Gray and V. P. Whittaker, J. Anatomy 96, pages 79-88, 1962. The corresponding literature description is hereby introduced as a reference and is deemed to be part of the disclosure.
The tissue (hypothalamus for the determination of noradrenalin uptake inhibition and medulla and pons for the determination of 5-HT uptake inhibition) is homogenised in ice-cooled 0.32 M sucrose (100 mg of tissue/1 mL) in a glass homogeniser with Teflon pestle using five complete up and down strokes at 840 revolutions/minute.
The homogenate is centrifuged at 4° C. for 10 minutes at 1000 g. After subsequent centrifugation at 17000 g for 55 minutes, the synaptosomes (P2 fraction) are obtained, which are resuspended in 0.32 M […] (0.5 mL/100 mg of original weight).
The particular uptake is measured in a 96-well microtitre plate. The volume is 250 μl and the incubation proceeds at room temperature (approx. 20-25° C.) under an O2 atmosphere.
The incubation time is 7.5 minutes for [^3H]-NA and 5 minutes for [^3H]-5-HT. The 96 samples are then filtered through a Unifilter GF/B® microtitre plate (Packard) and washed with 200 mL of incubated buffer using a “Brabdel MPXRI-96T Cell-Harvester”. The Unifilter GF/B plate is dried for 1 hour at 55° C. The plate is then sealed with a Back Seal® (Packard) and 35 μl of scintillation fluid are added per well (Ultima Gold®, Packard). After sealing with a top Seal® (Packard) and establishing an equilibrium (around 5 hours), radioactivity is determined in a “Trilux 1450 Microbeta” (Wallac).
The quantity of protein used in the above determination corresponds to the values known from the literature, as for example described in “Protein measurement with the folin phenol reagent”, Lowry et al., J. Biol. Chem., 193, 265-275, 1951.
A detailed description of the method may additionally be found in the literature, for example in M. Ch. Frink, H.-H. Hennies, W. Engelberger, M. Haurand and B. Wilffert (1996) Arzneim.-Forsch./Drug Res. 46 (III), 11, 1029-1036.

The target in a further test is T3, 5-HT transporter (Rattus norvegicus, UniProt P31652).
T3 construct: from tissue; host or cells: rat brain synaptosomes (P2 fraction) from medulla and pons
Description: 5-HT uptake inhibition in rat brain synaptosomes (medulla and pons), [3H]-5-HT. The test is classed as biochemical. The method, boiled down:
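Freshly isolated P2 synaptosomes taken from rat hypothalamus (NA) or medulla/pons (5-HT) were incubated at room temperature under O2 with [3H]-NA for 7.5 min or [3H]-5-HT for 5 min. Uptake was measured as filter-retained radioactivity by scintillation counting.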

T3 sequence (P31652 whole entry): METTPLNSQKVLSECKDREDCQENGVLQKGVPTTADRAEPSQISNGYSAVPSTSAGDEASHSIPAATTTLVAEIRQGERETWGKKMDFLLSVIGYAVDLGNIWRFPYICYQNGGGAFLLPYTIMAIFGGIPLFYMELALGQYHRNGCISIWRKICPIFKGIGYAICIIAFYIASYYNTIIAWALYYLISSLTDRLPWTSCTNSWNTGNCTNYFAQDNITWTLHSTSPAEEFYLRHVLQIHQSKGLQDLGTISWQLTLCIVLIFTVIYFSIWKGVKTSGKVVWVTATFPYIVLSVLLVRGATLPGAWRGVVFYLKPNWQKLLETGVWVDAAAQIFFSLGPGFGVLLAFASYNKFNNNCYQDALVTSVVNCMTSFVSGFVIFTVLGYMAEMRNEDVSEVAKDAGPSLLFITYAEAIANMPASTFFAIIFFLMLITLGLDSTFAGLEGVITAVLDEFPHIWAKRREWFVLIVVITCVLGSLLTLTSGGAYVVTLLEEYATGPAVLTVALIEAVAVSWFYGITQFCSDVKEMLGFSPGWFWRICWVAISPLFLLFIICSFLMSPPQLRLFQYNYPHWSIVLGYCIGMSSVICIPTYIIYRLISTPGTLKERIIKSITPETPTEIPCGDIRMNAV
T2 sequence (Q63380 1-617): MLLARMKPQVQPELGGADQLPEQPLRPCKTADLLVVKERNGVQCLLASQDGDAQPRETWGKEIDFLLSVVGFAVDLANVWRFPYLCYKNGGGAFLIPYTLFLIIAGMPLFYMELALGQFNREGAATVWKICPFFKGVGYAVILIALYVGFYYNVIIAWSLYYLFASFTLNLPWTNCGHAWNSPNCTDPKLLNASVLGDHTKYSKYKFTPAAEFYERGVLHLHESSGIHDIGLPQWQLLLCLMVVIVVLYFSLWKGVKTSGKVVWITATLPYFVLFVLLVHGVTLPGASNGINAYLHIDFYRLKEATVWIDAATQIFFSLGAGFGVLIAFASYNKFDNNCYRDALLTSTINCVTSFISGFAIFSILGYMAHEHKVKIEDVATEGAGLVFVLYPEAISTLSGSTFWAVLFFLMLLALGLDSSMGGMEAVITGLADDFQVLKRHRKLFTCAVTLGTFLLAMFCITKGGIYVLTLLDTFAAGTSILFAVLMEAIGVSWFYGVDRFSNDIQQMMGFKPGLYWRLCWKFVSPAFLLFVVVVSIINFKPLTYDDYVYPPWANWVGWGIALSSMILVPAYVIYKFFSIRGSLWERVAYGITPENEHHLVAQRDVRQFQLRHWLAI
T1 sequence (P35372 whole entry): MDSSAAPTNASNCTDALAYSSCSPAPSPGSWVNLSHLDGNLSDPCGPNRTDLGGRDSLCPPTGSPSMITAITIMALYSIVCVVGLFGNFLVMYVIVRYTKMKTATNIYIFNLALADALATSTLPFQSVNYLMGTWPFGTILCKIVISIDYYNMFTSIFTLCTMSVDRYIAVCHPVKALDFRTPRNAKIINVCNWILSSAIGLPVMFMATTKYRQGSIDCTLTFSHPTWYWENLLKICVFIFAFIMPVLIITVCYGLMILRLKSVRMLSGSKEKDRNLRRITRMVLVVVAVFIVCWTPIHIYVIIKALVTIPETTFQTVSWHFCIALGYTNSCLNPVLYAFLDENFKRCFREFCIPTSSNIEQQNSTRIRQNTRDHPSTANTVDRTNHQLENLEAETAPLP

With `CC(CC(=O)O)CC(=O)N1CCC2(CC1)CN(Cc1ccc(F)c(F)c1)C(=O)O2` (stereo not drawn) [Example 69, 5-[3-(3,4-difluorobenzyl)-2-oxo-1-oxa-3,8-diazaspiro[4.5]dec-8-yl]-3-methyl-5-oxopentanoic acid], at 1 µM the inhibition on human μ opioid receptor was 50%.

In the case of `O=C1OC2(CCN(C(=O)c3ccc(Cl)cc3)CC2)CN1Cc1cccc(Br)c1` [Example 100, 3-(3-bromobenzyl)-8-(4-chlorobenzoyl)-1-oxa-3,8-diazaspiro[4.5]decan-2-one], on human μ opioid receptor, testing at 1 µM gave an inhibition of 64%.

Regarding `CCOc1ccc(C(=O)N2CCC3(CC2)CN(Cc2ccc(C)cc2)C(=O)O3)cc1` [Example 92, 8-(4-ethoxybenzoyl)-3-(4-methylbenzyl)-1-oxa-3,8-diazaspiro[4.5]decan-2-one], the inhibition (as a rule, the share of the control response that was lost under treatment) at 1 µM on human μ opioid receptor was found to be 70%. The inhibition at 10 µM was 73% against NA transporter and 67% against 5-HT transporter.

For the molecule `CC(=O)Nc1ccc(C(=O)N2CCC3(CC2)CN(Cc2ccc(F)c(F)c2)C(=O)O3)cc1` [Example 96, N-{4-[3-(3,4-difluorobenzyl)-2-oxo-1-oxa-3,8-diazaspiro[4.5]decane-8-carbonyl]phenyl}acetamide], on human μ opioid receptor, the inhibition at 1 µM amounted to 78%.

On human μ opioid receptor, `CC(C)(CC(=O)O)C(=O)N1CCC2(CC1)CN(Cc1ccc(F)c(F)c1)C(=O)O2` [Example 65, 4-[3-(3,4-difluorobenzyl)-2-oxo-1-oxa-3,8-diazaspiro[4.5]dec-8-yl]-3,3-dimethyl-4-oxobutanoic acid] showed an inhibition at 1 µM of 56%. The molecule further came in with an inhibition at 10 µM against 5-HT transporter of 55%.

The molecule `O=C(O)COCC(=O)N1CCC2(CC1)CN(Cc1ccc(F)c(F)c1)C(=O)O2` [Example 64, {2-[3-(3,4-difluorobenzyl)-2-oxo-1-oxa-3,8-diazaspiro[4.5]dec-8-yl]-2-oxoethoxy}acetic acid] displayed an inhibition at 1 µM at human μ opioid receptor of 48%.

The molecule `N#Cc1ccc(CN2CC3(CCN(C(=O)C45CC6CC(CC(C6)C4)C5)CC3)OC2=O)cc1` [Example 98, 4-[8-(adamantane-1-carbonyl)-2-oxo-1-oxa-3,8-diazaspiro[4.5]dec-3-ylmethyl]benzonitrile] yielded an inhibition at 1 µM on human μ opioid receptor of 75%.

The molecule `O=C1OC2(CCN(C(=O)c3ccc(Br)cc3)CC2)CN1Cc1ccc(F)cc1` [Example 97, 8-(4-bromobenzoyl)-3-(4-fluorobenzyl)-1-oxa-3,8-diazaspiro[4.5]decan-2-one] displayed an inhibition at 1 µM on human μ opioid receptor of 67%.

`CC(CC(=O)O)CC(=O)N1CCC2(CC1)CN(Cc1ccccc1F)C(=O)O2` (stereo not drawn) [Example 67, 5-[3-(2-fluorobenzyl)-2-oxo-1-oxa-3,8-diazaspiro[4.5]dec-8-yl]-3-methyl-5-oxopentanoic acid] came in with an inhibition at 1 µM at human μ opioid receptor of 41%.

In the case of `O=C1OC2(CCN(S(=O)(=O)Cc3cccc(Cl)c3)CC2)CN1Cc1ccccc1-c1ccccc1` [Example 149, 3-biphenyl-2-ylmethyl-8-(3-chlorobenzylsulfonyl)-1-oxa-3,8-diazaspiro[4.5]decan-2-one], the inhibition at 1 µM at human μ opioid receptor came to 61%.

`COC(=O)CC(=O)N1CCC2(CC1)CN(Cc1ccc(C#N)cc1)C(=O)O2` [Example 93, 3-[3-(4-cyanobenzyl)-2-oxo-1-oxa-3,8-diazaspiro[4.5]dec-8-yl]-3-oxopropionic acid methyl ester] yielded an inhibition at 1 µM on human μ opioid receptor of 65%.

Consider `O=C(O)COCC(=O)N1CCC2(CC1)CN(Cc1ccc(C(F)(F)F)cc1)C(=O)O2` [Example 70, {2-oxo-2-[2-oxo-3-(4-trifluoromethylbenzyl)-1-oxa-3,8-diazaspiro[4.5]dec-8-yl]ethoxy}acetic acid], for which at 1 µM the inhibition at human μ opioid receptor was 42%.

Take `Cc1ccc(CN2CC3(CCN(C(=O)CC(C)(C)CC(=O)O)CC3)OC2=O)cc1` [Example 68, 3,3-dimethyl-5-[3-(4-methylbenzyl)-2-oxo-1-oxa-3,8-diazaspiro[4.5]dec-8-yl]-5-oxopentanoic acid]: the inhibition at 1 µM at human μ opioid receptor stood at 46%.

In the case of `O=C(NCCc1ccccc1)N1CCC2(CC1)CN(Cc1ccccc1-c1ccccc1)C(=O)O2` [Example 57, 3-biphenyl-2-ylmethyl-2-oxo-1-oxa-3,8-diazaspiro[4.5]decane-8-carboxylic acid phenethylamide], the inhibition at 10 µM on NA transporter stood at 55%; on 5-HT transporter, 50%.

Consider `Cc1cc(C)cc(CN2CC3(CCN(C(=O)c4cccc(N(C)C)c4)CC3)OC2=O)c1` [Example 95, 8-(3-dimethylaminobenzoyl)-3-(3,5-dimethylbenzyl)-1-oxa-3,8-diazaspiro[4.5]decan-2-one], for which, at human μ opioid receptor, the inhibition at 1 µM turned out to be 75%.

On to `Cc1csc(NC(=O)CN2CCC3(CC2)CN(Cc2ccc(F)c(F)c2)C(=O)O3)c1C#N` [Example 80, N-(3-cyano-4-methylthiophen-2-yl)-2-[3-(3,4-difluorobenzyl)-2-oxo-1-oxa-3,8-diazaspiro[4.5]dec-8-yl]acetamide], for which the inhibition at 10 µM is 45% on NA transporter and 47% against 5-HT transporter.

Consider `N#Cc1ccccc1CN1CC2(CCN(C(=O)c3ccc(F)cc3F)CC2)OC1=O` [Example 94, 2-[8-(2,4-difluorobenzoyl)-2-oxo-1-oxa-3,8-diazaspiro[4.5]dec-3-ylmethyl]benzonitrile], for which the inhibition at 1 µM on human μ opioid receptor came out at 62%.

As for `COc1cccc(CN2CC3(CCN(Cc4ccc(Cl)cc4)CC3)OC2=O)c1` [Example 79, 8-(4-chlorobenzyl)-3-(3-methoxybenzyl)-1-oxa-3,8-diazaspiro[4.5]decan-2-one], the inhibition at 10 µM against NA transporter is 57%; against 5-HT transporter, 67%.
